Measurements published in patent publication US10266535B2, “Inhibitor of FLT3 kinase and use thereof” (HEFEI INSTITUTES OF PHYSICAL SCIENCE, CHINESE ACADEMY OF …, priority 2015, dated 2019).

What was measured:
[1] = system: MV4-11 (expressing FLT3/ITD mutant gene); assay: Cell proliferation, Cell Titer-Glo, MV4-11; type: cell-based; settings: Homo sapiens, MV4-11; incubated for 72 hours; read-out: MV4-11 IC50
Method: (§1) The above cell lines were constructed by our laboratory.
(§2) The number of viable cells was determined by quantification of ATP in living cells using the Cell Titer-Glo® (Promega, USA) chemiluminescence cell viability assay kit.

[2] = system: MOLM-13 (expressing FLT3/ITD mutant gene and wild-type FLT3 gene); assay: Cell proliferation, Cell Titer-Glo, MOLM-13; type: cell-based; settings: Homo sapiens, MOLM-13; incubated for 72 hours; read-out: MOLM-13 IC50
Method: as §1, §2

[3] = system: TEL-BaF3-FLT3/ITD (stably expressing FLT3/ITD mutant activated kinase); assay: Cell proliferation, Cell Titer-Glo, TEL-BaF3-FLT3/ITD; type: cell-based, mouse; settings: Mus musculus, 72 h, incubated for 72 hours; read-out: TEL-BaF3-FLT3/ITD IC50
Method: as §1, §2

[4] = system: BaF3-FLT3-ITD-F691L (stably expressing FLT3/ITD F691L mutant activated kinase); assay: Cell proliferation, Cell Titer-Glo, BaF3-FLT3-ITD-F691L; type: cell-based; settings: Mus musculus; incubated for 72 hours; read-out: BaF3-FLT3-ITD-F691L IC50
Method: as §1, §2

[5] = system: pro-B cell BaF3; assay: Cell proliferation, Cell Titer-Glo, BaF3; type: cell-based; settings: Mus musculus, incubated for 72 hours
Method: as §1, §2

[6] = system: U937 (expressing wild-type FLT3 gene); assay: Cell proliferation, Cell Titer-Glo, U937; type: cell-based, human; settings: Homo sapiens, U-937, 72 h, incubated for 72 hours; read-out: U937 IC50
Method: as §1, §2

[7] = system: OCI-AML-3 (expressing FLT3 A680V mutant gene); assay: Cell proliferation, Cell Titer-Glo, OCI-AML3; type: cell-based; settings: Homo sapiens, incubated for 72 hours
Method: as §1, §2

[8] = system: TEL-BaF3-BMX (stably expressing BMX kinase); assay: Cell proliferation, Cell Titer-Glo, TEL-BaF3-BMX; type: cell-based; settings: Mus musculus; incubated for 72 hours
Method: as §1, §2

[9] = system: TPR-MET-BaF3 (stably expressing MET kinase); assay: Cell proliferation, Cell Titer-Glo, TPR-MET-BaF3; type: cell-based; settings: Mus musculus; incubated for 72 hours
Method: as §1, §2

[10] = system: TEL-BaF3-BLK (stably expressing BLK kinase); assay: Cell proliferation, Cell Titer-Glo, TEL-BaF3-BLK; type: cell-based; settings: Mus musculus; incubated for 72 hours
Method: as §1, §2

[11] = target: BTK protein kinase (Homo sapiens (Human), UniProt Q06187); assay: In vitro inhibition activity (enzymatic activity), ADP-Glo, BTK; type: biochemical; settings: ATP 10 μM
[12] = system: MOLM-14 (expressing FLT3/ITD mutant gene and wild-type FLT3 gene); assay: Cell proliferation, Cell Titer-Glo, MOLM-14; type: cell-based; settings: Homo sapiens, MOLM-14; incubated for 72 hours; read-out: MOLM-14 IC50
Method: as §1, §2

[13] = system: TEL-BaF3-FLT3-D835Y (stably expressing FLT3 D835Y mutant activated kinase); assay: Cell proliferation, Cell Titer-Glo, TEL-BaF3-FLT3-D835Y; type: cell-based; settings: Mus musculus; incubated for 72 hours; read-out: TEL-BaF3-FLT3-D835Y IC50
Method: as §1, §2

[14] = system: TEL-cKIT-BaF3 (stably expressing cKIT kinase); assay: Cell proliferation, Cell Titer-Glo, TEL-cKIT-BaF3; type: cell-based; settings: Mus musculus; incubated for 72 hours
Method: as §1, §2

[15] = system: TEL-BaF3-EGFR (stably expressing EGFR kinase); assay: Cell proliferation, Cell Titer-Glo, TEL-BaF3-EGFR; type: cell-based; settings: Mus musculus; incubated for 72 hours
Method: as §1, §2

[16] = system: TEL-JAK1-BaF3 (stably expressing JAK1 kinase); assay: Cell proliferation, Cell Titer-Glo, TEL-JAK1-BaF3; type: cell-based; settings: Mus musculus; incubated for 72 hours
Method: as §1, §2

Sequence of BTK protein kinase (Q06187 whole entry): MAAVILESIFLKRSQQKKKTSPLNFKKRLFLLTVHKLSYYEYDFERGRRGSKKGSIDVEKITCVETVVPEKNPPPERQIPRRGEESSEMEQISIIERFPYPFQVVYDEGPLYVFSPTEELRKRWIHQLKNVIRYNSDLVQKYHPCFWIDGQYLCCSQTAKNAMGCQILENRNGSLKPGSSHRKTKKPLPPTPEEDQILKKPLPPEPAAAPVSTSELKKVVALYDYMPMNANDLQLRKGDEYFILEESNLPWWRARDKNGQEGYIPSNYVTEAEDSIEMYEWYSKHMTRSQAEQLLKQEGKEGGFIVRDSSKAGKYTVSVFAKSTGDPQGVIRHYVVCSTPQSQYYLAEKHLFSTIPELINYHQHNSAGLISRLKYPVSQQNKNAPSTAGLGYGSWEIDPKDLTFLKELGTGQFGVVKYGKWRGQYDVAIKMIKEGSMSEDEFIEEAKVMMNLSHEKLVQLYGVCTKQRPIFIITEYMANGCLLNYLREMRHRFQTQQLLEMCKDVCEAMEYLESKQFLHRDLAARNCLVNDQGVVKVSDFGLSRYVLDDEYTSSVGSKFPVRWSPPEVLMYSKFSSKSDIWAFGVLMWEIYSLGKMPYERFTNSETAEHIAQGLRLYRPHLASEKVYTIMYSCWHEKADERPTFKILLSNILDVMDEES

CC(C)[C@@H](N)C(=O)N1CCC[C@@H](n2nc(-c3ccc(Oc4ccccc4)cc3)c3c(N)ncnc32)C1 (stereo in doubt) [Compound 45, (R)-2-amino-1-((R)-3-(4-amino-(4-phenoxyphenyl)-1H-pyrazolo[3,4-d]pyrimidin-1-yl)piperidin-1-yl)-3-methylbutanone]
IC50 [1]: 27 nM | IC50 [2]: 25 nM | IC50 [3]: 17 nM | IC50 [4]: 370 nM | IC50 [5]: 1400 nM | IC50 [6]: > 10000 nM | IC50 [7]: 4200 nM | IC50 [8]: 92 nM | IC50 [9]: 1380 nM | IC50 [10]: 96 nM | IC50 [11]: 260 nM

Nc1ncnc2c1c(-c1ccc(Oc3ccccc3)cc1)nn2[C@@H]1CCCN(C(=O)C(F)(F)F)C1 [Compound 2, (R)-1-(3-(4-amino-(4-phenoxyphenyl)-1H-pyrazolo[3,4-d]pyrimidin-1-yl)piperidin-1-yl)-2,2,2-trifluoroethanone]
IC50 [1]: 300 nM | IC50 [2]: 290 nM | IC50 [12]: 720 nM | IC50 [3]: 120 nM | IC50 [13]: 130 nM | IC50 [5]: 2000 nM | IC50 [6]: > 10000 nM | IC50 [8]: 82 nM | IC50 [14]: 1900 nM | IC50 [9]: 4700 nM | IC50 [15]: 6100 nM | IC50 [10]: 630 nM | IC50 [16]: 1400 nM

Nc1ncnc2c1c(-c1ccc(Oc3ccccc3)cc1)nn2[C@@H]1CCCN(S(N)(=O)=O)C1 [Compound 4, (R)-3-(4-amino-(4-phenoxyphenyl)-1H-pyrazolo[3,4-d]pyrimidin-1-yl)piperidin-1-sulfonamide]
IC50 [1]: 300 nM | IC50 [2]: 230 nM | IC50 [12]: 680 nM | IC50 [13]: 160 nM | IC50 [5]: > 10000 nM | IC50 [8]: 820 nM | IC50 [14]: 4900 nM | IC50 [9]: > 10000 nM | IC50 [15]: > 10000 nM | IC50 [10]: 1400 nM | IC50 [16]: > 10000 nM

Nc1ncnc2c1c(-c1ccc(Oc3ccccc3)cc1)nn2[C@@H]1CCCN(C(=O)[C@H](N)Cc2c[nH]c3ccccc23)C1 [Compound 8, (R)-2-amino-1-((R)-3-(4-amino-(4-phenoxyphenyl)-1H-pyrazolo[3,4-d]pyrimidin-1-yl)piperidin-1-yl)-3-(1H-indol-3-yl)propan-1-one]
IC50 [1]: 270 nM | IC50 [2]: 180 nM | IC50 [12]: 310 nM | IC50 [3]: 270 nM | IC50 [13]: 89 nM | IC50 [5]: 620 nM | IC50 [6]: 1000 nM | IC50 [8]: 550 nM | IC50 [14]: 750 nM | IC50 [15]: 1400 nM | IC50 [10]: 560 nM | IC50 [16]: 270 nM | IC50 [11]: 254 nM

Nc1ncnc2c1c(-c1ccc(Oc3ccccc3)cc1)nn2[C@@H]1CCCN(C(=O)[C@H](N)Cc2ccc(O)cc2)C1 [Compound 10, (R)-2-amino-1-((R)-3-(4-amino-(4-phenoxyphenyl)-1H-pyrazolo[3,4-d]pyrimidin-1-yl)piperidin-1-yl)-3-(4-hydroxyphenyl)propan-1-one]
IC50 [1]: 61 nM | IC50 [2]: 64 nM | IC50 [12]: 110 nM | IC50 [3]: 110 nM | IC50 [13]: 64 nM | IC50 [5]: 1200 nM | IC50 [6]: 3400 nM | IC50 [8]: 840 nM | IC50 [14]: 1100 nM | IC50 [9]: 1400 nM | IC50 [15]: 3700 nM | IC50 [10]: 1000 nM | IC50 [16]: 400 nM | IC50 [11]: 128 nM

N#CCC(=O)N1CCC[C@@H](n2nc(-c3ccc(Oc4ccccc4)cc3)c3c(N)ncnc32)C1 [Compound 20]
IC50 [1]: 200 nM | IC50 [2]: 160 nM | IC50 [12]: 410 nM | IC50 [3]: 120 nM | IC50 [13]: 150 nM | IC50 [5]: > 10000 nM | IC50 [6]: > 10000 nM | IC50 [8]: 47 nM | IC50 [14]: 3300 nM | IC50 [9]: > 10000 nM | IC50 [15]: 4700 nM | IC50 [10]: 520 nM | IC50 [16]: > 10000 nM

CC(O)C(=O)N1CCC[C@@H](n2nc(-c3ccc(Oc4ccccc4)cc3)c3c(N)ncnc32)C1 (stereo partly drawn) [Compound 23, 1-((R)-3-(4-amino-(4-phenoxyphenyl)-1H-pyrazolo[3,4-d]pyrimidin-1-yl)piperidin-1-yl)-2-hydroxylpropan-1-one]
IC50 [1]: 320 nM | IC50 [2]: 290 nM | IC50 [12]: 630 nM | IC50 [3]: 91 nM | IC50 [13]: 430 nM | IC50 [5]: > 10000 nM | IC50 [6]: 4300 nM | IC50 [8]: 88 nM | IC50 [14]: 4800 nM | IC50 [9]: > 10000 nM | IC50 [15]: 6500 nM | IC50 [10]: 2800 nM | IC50 [16]: > 10000 nM | IC50 [11]: 204 nM
